“Also recorded” adds a separate entry of the source. Like-named read-outs stand apart in the source and are kept apart here.
Assays:
Format in all cases: cell-based
[1] = molecular target: T1, cholera toxin subunit B (CTB) (Vibrio cholerae serotype O1, UniProt P01556); assay: cell-based
[2] = molecular target: T1, cholera toxin subunit B (CTB)
[3] = molecular target: T2, Aleuria aurantia lectin (AAL) (Aleuria aurantia, UniProt P18891)
T2 sequence (P18891 1-313): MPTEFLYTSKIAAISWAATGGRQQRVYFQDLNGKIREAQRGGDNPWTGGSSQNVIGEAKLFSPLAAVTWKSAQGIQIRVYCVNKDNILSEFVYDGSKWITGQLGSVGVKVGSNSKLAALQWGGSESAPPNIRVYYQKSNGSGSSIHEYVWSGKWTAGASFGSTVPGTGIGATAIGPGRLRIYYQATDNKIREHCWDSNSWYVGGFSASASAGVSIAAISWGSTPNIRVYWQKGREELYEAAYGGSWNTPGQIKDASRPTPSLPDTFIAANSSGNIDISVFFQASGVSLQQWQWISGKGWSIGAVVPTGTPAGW

[4] = molecular target: T1, cholera toxin subunit B (CTB); remark: listed apart in the source
[5] = molecular target: T2, Aleuria aurantia lectin (AAL); remark: listed apart in the source
CTB = CTB (Vibrio cholerae serotype O1, UniProt P01556)
Chain of CTB (P01556 22-124 limits assumed): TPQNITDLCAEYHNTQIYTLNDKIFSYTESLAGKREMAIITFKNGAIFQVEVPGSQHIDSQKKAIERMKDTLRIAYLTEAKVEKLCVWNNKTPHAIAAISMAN

T1 sequence (P01556 22-124 limits assumed): as above

Molecule: CC(=O)N[C@H]1C(O)O[C@H](CO)[C@@H](O[C@@H]2O[C@H](CO)[C@H](O)[C@H](O)[C@H]2O[C@@H]2O[C@@H](C)[C@@H](O)[C@@H](O)[C@@H]2O)[C@@H]1O[C@@H]1O[C@@H](C)[C@@H](O)[C@@H](O)[C@@H]1O (mixture of isomers) [LeY, Fucα2Galβ4[Fucα3]GlcNAc]
- CTB binding, % of the no sugar control [1]: ~ 20%
- Inhibition of CTB binding to Colo205 cells (in words) [1]: most potent blocker
- Inhibition of CTB binding to T84 cells, titration of inhibitor (in words) [2]: near complete inhibition
- AAL lectin retained bound to the cell surface [3]: ~ 15%
- Inhibition of AAL binding to Colo205 cells (in words) [3]: more efficient; also recorded: capable of inhibiting
- Inhibition of CTB binding to primary human jejunal epithelial cells (in words) [4]: effectively block

Molecule: C[C@H](O)[C@@H](O)[C@@H](O)[C@H](F)C=O [2-deoxy-2-fluoro-L-fucose, 2-Deoxy-2-fluoro-L-fucose]
- Inhibition of CTB binding to Colo205 cells (in words) [1]: indistinguishable
- Inhibition of CTB binding to T84 cells (in words) [2]: indistinguishable

Molecule: CC1OC(OC2C(OC3C(CO)OC(O)C(O)C3O)OC(CO)C(O)C2O)C(O)C(O)C1O (stereo not shown) [2′-FL, 2′-Fucosyllactose]
- IC50 [1]: 3 mM
- Inhibition of CTB binding to Colo205 cells (in words) [1]: more potent inhibitor than L-fucose alone
- Reduction of CTB binding compared to the no sugar control [1]: at least 75%
- Reduction of IC50 relative to L-fucose [1]: ~ 5 fold
- Inhibition of CTB binding to T84 cells (in words) [2]: more potent inhibitor
- Inhibition of AAL binding to Colo205 cells (in words) [3]: inhibit binding

Molecule: CC(=O)N[C@H]1[C@H]([C@H](O)[C@H](O)CO)O[C@@](O[C@H]2[C@@H](O)[C@@H](CO)O[C@@H](O[C@H]3[C@H](O)[C@@H](NC(C)=O)C(O)O[C@@H]3CO)[C@@H]2O)(C(=O)O)C[C@@H]1O (stereo partly shown) [3′-SLN, 3′-Sialyl-N-acetyllactosamine]
- Inhibition of CTB binding to Colo205 cells (in words) [1]: incapable of inhibiting

Molecule: C[C@H](O)C[C@@H](O)[C@H](O)C=O [4-deoxy-fucose, 4-Deoxy-L-fucose]
- Inhibition of CTB binding to Colo205 cells (in words) [1]: complete loss in inhibitory potential
- Inhibition of CTB binding to T84 cells (in words) [2]: complete loss in inhibitory potential

Molecule: C[C@@H](O)[C@@H](O)[C@H](O)[C@@H](O)C=O [6-deoxy-D-glucose]
- Inhibition of CTB binding to Colo205 cells (in words) [1]: only minor effects
- Inhibition of AAL binding to T84 cells (in words) [5]: virtually no effect
- Inhibition of CTB binding to T84 cells (in words) [2]: no effect
- Inhibition of AAL binding to Colo205 cells (in words) [3]: virtually no effect

Molecule: CC(=O)N[C@H]1[C@@H](O[C@H]2[C@@H](O)[C@@H](CO)O[C@@H](O[C@H]3[C@H](O[C@@H]4O[C@@H](C)[C@@H](O)[C@@H](O)[C@@H]4O)[C@@H](NC(C)=O)C(O)O[C@@H]3CO)[C@@H]2O[C@@H]2O[C@@H](C)[C@@H](O)[C@@H](O)[C@@H]2O)O[C@H](CO)[C@H](O)[C@@H]1O (stereo partly shown) [ALeY]
- Inhibition of CTB binding to Colo205 cells (in words) [1]: failed to produce a further increase in potency; also recorded: less effectively than LeY

Molecule: CC(=O)NC1C(O)OC(CO)C(OC2OC(CO)C(O)C(OC3OC(CO)C(O)C(O)C3O)C2OC2OC(C)C(O)C(O)C2O)C1OC1OC(C)C(O)C(O)C1O (stereo not shown) [BLeY]
- Inhibition of CTB binding to Colo205 cells (in words) [1]: failed to produce a further increase in potency; also recorded: comparable blocking activity as LeY

Molecule: OC1OC[C@@H](O)[C@@H](O)[C@@H]1O (stereo partly drawn) [D-arabinose, d-(−)-Arabinose]
- Inhibition of CTB binding to Colo205 cells (in words) [1]: indistinguishably from the no sugar control
- Inhibition of AAL binding to T84 cells (in words) [5]: effective inhibitors
- Inhibition of CTB binding to T84 cells (in words) [2]: indistinguishably from the no sugar control
- Inhibition of AAL binding to Colo205 cells (in words) [3]: effective inhibitors

Molecule: C[C@H]1OC(O)[C@H](O)[C@@H](O)[C@H]1O (stereo partly drawn) [D-fucose, d-(+)-Fucose]
- Inhibition of CTB binding to Colo205 cells (in words) [1]: only minor effects
- Inhibition of AAL binding to T84 cells (in words) [5]: virtually no effect
- Inhibition of CTB binding to T84 cells (in words) [2]: only a modest effect
- Inhibition of AAL binding to Colo205 cells (in words) [3]: virtually no effect

Molecule: C[C@@H]1O[C@@H](O[C@H]2[C@H](O[C@H]3[C@H](O[C@@H]4O[C@@H](C)[C@@H](O)[C@@H](O)[C@@H]4O)[C@@H](O)C(O)O[C@@H]3CO)O[C@H](CO)[C@H](O)[C@@H]2O)[C@@H](O)[C@H](O)[C@@H]1O (stereo partly shown) [DF-L, Difucosyllactose]
- Reduction of CTB binding compared to the no sugar control [1]: at least 75%
- Inhibition of AAL binding to Colo205 cells (in words) [3]: more efficient

Molecule: CC(=O)NC1C(O)CC(OC2C(O)C(OC3C(CO)OC(O)C(O)C3O)OC(CO)C2OC2OC(CO)C(O)C(OC3OC(CO)C(O)C(O)C3O)C2NC(C)=O)(C(=O)O)OC1C(O)C(O)CO (stereo not shown) [GM1a(os), GM1a ganglioside sugar]
- CTB binding, % of the no sugar control [1]: ~ 5%
- Fold more potent than LeY in inhibiting CTB binding [1]: approximately 2000 fold
- IC50 ([1]; read-out: IC50 against CTB binding): 0.000109 ± 3.8e-05 mM
- Inhibition of CTB binding to T84 cells, titration of inhibitor (in words) [2]: could not completely inhibit CTB binding

Molecule: CC(=O)N[C@H]1C(O)O[C@H](CO)[C@@H](O[C@@H]2O[C@H](CO)[C@H](O)[C@H](O)[C@H]2O[C@@H]2O[C@@H](C)[C@@H](O)[C@@H](O)[C@@H]2O)[C@@H]1O (stereo partly shown) [H antigen, Blood group H antigen triaose type 2]
- Reduction of CTB binding compared to the no sugar control [1]: at least 75%

Molecule: C[C@@H]1OC(O)[C@@H](O)C[C@@H]1O (stereo partly drawn) [L-colitose]
- Inhibition of CTB binding to T84 cells (in words) [2]: significant loss in inhibitory potential

Molecule: C[C@H](O)[C@@H](O)[C@@H](O)[C@H](O)C=O [L-fucose, l-(−)-Fucose]
- CTB binding, % of the no sugar control [1]: ~ 20%
- IC50 [1]: 14.5 mM
- Inhibition of AAL binding to T84 cells (in words) [5]: effectively block
- Inhibition of CTB binding to T84 cells (in words) [2]: dramatically suppress; also recorded: suppression of CTB binding was observed
- Inhibition of AAL binding to Colo205 cells (in words) [3]: effectively block

Molecule: O=C[C@@H](O)[C@H](O)[C@H](O)[C@@H](O)CO [L-galactose, L-Galactose]
- Inhibition of CTB binding to Colo205 cells (in words) [1]: modest loss in inhibition
- Inhibition of AAL binding to T84 cells (in words) [5]: effective inhibitors
- Inhibition of CTB binding to T84 cells (in words) [2]: modest loss in inhibition
- Inhibition of AAL binding to Colo205 cells (in words) [3]: effective inhibitors

Molecule: O=C[C@@H](O)[C@H](O)[C@@H](O)[C@@H](O)CO [L-glucose]
- Inhibition of CTB binding (in words) (CTB): loss of all inhibitory activity

Molecule: CC(=O)N[C@H]1C(O)O[C@H](CO)[C@@H](O[C@@H]2O[C@H](CO)[C@H](O)[C@H](O)[C@H]2O)[C@@H]1O (stereo partly drawn) [LacNAc, N-Acetyl-D-lactosamine]
- Inhibition of CTB binding to primary human jejunal epithelial cells (in words) [4]: no inhibition

Molecule: OC[C@H]1O[C@@H](O[C@H]2[C@H](O)[C@@H](O)[C@H](O)O[C@@H]2CO)[C@H](O)[C@@H](O)[C@H]1O [lactose, d-Lactose monohydrate]
- inhibition at 100000 µM ([1]; COLO 205, read-out: Inhibition of CTB binding): ~50%
- Inhibition of CTB binding to T84 cells (in words) [2]: did not inhibit

Molecule: CO[C@@H]1O[C@@H](C)[C@@H](O)[C@@H](O)[C@@H]1O [methyl α-L-fucose, Methyl a-L-fucopyranoside]
- Inhibition of CTB binding to Colo205 cells (in words) [1]: inhibited CTB binding as efficiently as L-fucose
- Inhibition of CTB binding to T84 cells (in words) [2]: suppression of CTB binding was observed

Molecule: COC1OC(C)C(O)C(O)C1O [methyl β-L-fucose, Methyl b-L-fucopyranoside]
- Inhibition of CTB binding to Colo205 cells (in words) [1]: significantly less
- Inhibition of CTB binding to T84 cells (in words) [2]: inhibitory activity was not observed

Molecule: CC(=O)N[C@H]1[C@H]([C@H](O)[C@H](O)CO)O[C@@](O[C@H]2[C@@H](O)[C@@H](CO)O[C@@H](O[C@@H]([C@H](O[C@@H]3O[C@@H](C)[C@@H](O)[C@@H](O)[C@@H]3O)[C@H](C=O)NC(C)=O)[C@H](O)CO)[C@@H]2O)(C(=O)O)C[C@@H]1O [sLeX, 3′-Sialyl Lewis X]
- Inhibitory potential, fold less than that of LeY [1]: 2 fold
- Inhibition of CTB binding to T84 cells, titration of inhibitor (in words) [2]: near complete inhibition
- AAL lectin retained bound to the cell surface [3]: ~ 70%

Molecule: Asialo-GM1-tetrasaccharide [GA1(os)]
- Inhibition of CTB binding to Colo205 cells (in words) [1]: significantly attenuated
- Inhibition of CTB binding to T84 cells, titration of inhibitor (in words) [2]: no inhibition

From article PMC5948155 (ACS infectious diseases, 2018)
